Experimental data reported in PubChem BioAssay (NCI).
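These data come from cells grown in 96-well plates and exposed to compound for 48 hours at five concentrations. TGI: total growth inhibition.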

Legend:
Test in all cases: NCI tumour cell line growth inhibition, 48 h
[1] = system: A549 NSCLC
[2] = system: NCI-H226 lung
[3] = system: SW-620 colon
[4] = system: CAKI-1 renal
[5] = system: NCI-H23 lung
[6] = system: HOP-62 NSCLC
[7] = system: SF-268 CNS
[8] = system: IGROV1 ovarian
[9] = system: MALME-3M melanoma
[10] = system: A498 renal
[11] = system: SF-295 CNS
[12] = system: SK-MEL-5 melanoma
[13] = system: K-562 leukemia
[14] = system: HOP-92 NSCLC
[15] = system: UO-31 renal
[16] = system: SN12C renal
[17] = system: SF-539 CNS
[18] = system: KM12 colon
[19] = system: SR leukemia
[20] = system: UACC-62 melanoma
[21] = system: M14 melanoma
[22] = system: U251 CNS
[23] = system: COLO 205 colon
[24] = system: UACC-257 melanoma
[25] = system: MCF7 breast
[26] = system: TK-10 renal
[27] = system: BT-549 breast
[28] = system: HCT-15 colon
[29] = system: RXF 393 renal
[30] = system: ACHN renal
[31] = system: SK-OV-3 ovarian
[32] = system: LOX IMVI melanoma
[33] = system: RPMI-8226 leukemia
[34] = system: CCRF-CEM leukemia
[35] = system: PC-3 prostate
[36] = system: HT29 colon
[37] = system: HCT-116 colon
[38] = system: MDA-MB-231 breast
[39] = system: SK-MEL-2 melanoma
[40] = system: OVCAR-3 ovarian
[41] = system: OVCAR-5 ovarian
[42] = system: 786-0 renal
[43] = system: EKVX NSCLC
[44] = system: OVCAR-8 ovarian
[45] = system: NCI/ADR-RES ovarian
[46] = system: T-47D breast
[47] = system: DU-145 prostate
[48] = system: NCI-H522 lung
[49] = system: NCI-H460 lung
[50] = system: SNB-75 CNS
[51] = system: HL-60(TB) leukemia
[52] = system: OVCAR-4 ovarian
[53] = system: HCC-2998 colon
[54] = system: MOLT-4 leukemia
[55] = system: SK-MEL-28 melanoma
[56] = system: SNB-19 CNS
[57] = system: MDA-MB-435

COc1cc([C@@H]2c3cc4c(cc3C[C@@H]3COC(=O)C32)OCO4)cc(OC)c1O (stereo partly specified)
TGI [1]: > 93.4 µM
TGI [2]: > 59.9 µM
TGI [3]: > 100 µM
TGI [4]: 0.823 µM
TGI [5]: > 100 µM
TGI [6]: 24.3 µM
TGI [7]: > 32.6 µM
TGI [8]: 0.0791 µM
TGI [9]: 70 nM
TGI [10]: > 100 µM
TGI [11]: 0.0585 µM
TGI [12]: 1040 nM
TGI [13]: > 100 µM
TGI [14]: 34.9 µM
TGI [15]: > 100 µM
TGI [16]: > 77.4 µM
TGI [17]: 0.0443 µM
TGI [18]: > 100 µM
TGI [19]: 0.0503 µM
TGI [20]: > 52.1 µM
TGI [21]: > 100 µM
TGI [22]: > 100 µM
TGI [23]: 93.3 nM
TGI [24]: > 100 µM
TGI [25]: 0.071 µM
TGI [26]: > 100 µM
TGI [27]: > 100 µM
TGI [28]: > 100 µM
TGI [29]: 0.0635 µM
TGI [30]: 23.5 µM
TGI [31]: 2470 nM
TGI [32]: 15.7 µM
TGI [33]: 0.137 µM
TGI [34]: 0.0526 µM

O=C(C[n+]1ccccc1)N=N/C(C(=O)Nc1c(Cl)c(O)c2ccccc2c1O)=C1/C(=O)Oc2cc(O)ccc2C1=O
TGI [1]: 11 µM
TGI [35]: 33 µM
TGI [2]: 25.8 µM
TGI [36]: 15.3 µM
TGI [3]: 20.6 µM
TGI [4]: 18.1 µM
TGI [5]: 17.3 µM
TGI [6]: 22.4 µM
TGI [7]: > 100 µM
TGI [8]: 14.7 µM
TGI [37]: 12.1 µM
TGI [10]: 57.5 µM
TGI [11]: 11.8 µM
TGI [12]: 2260 nM
TGI [13]: > 100 µM
TGI [14]: 48.8 µM
TGI [15]: 26.3 µM
TGI [38]: 61.4 µM
TGI [16]: 15.1 µM
TGI [39]: 8.1 µM
TGI [17]: 16 µM
TGI [18]: > 100 µM
TGI [40]: 13.2 µM
TGI [19]: 53.6 µM
TGI [41]: 25.5 µM
TGI [42]: > 100 µM
TGI [20]: 4.14 µM
TGI [43]: 29.3 µM
TGI [21]: 14.7 µM
TGI [44]: 35.3 µM
TGI [45]: 85.1 µM
TGI [22]: 45.9 µM
TGI [46]: 32.1 µM
TGI [47]: 12.4 µM
TGI [48]: 7.3 µM
TGI [23]: 10400 nM
TGI [24]: 12.1 µM
TGI [25]: 15.5 µM
TGI [26]: > 100 µM
TGI [49]: 8.36 µM
TGI [27]: 18.3 µM
TGI [28]: 7.09 µM
TGI [50]: 39.4 µM
TGI [29]: 21.7 µM
TGI [51]: > 100 µM
TGI [30]: 19.2 µM
TGI [31]: 27900 nM
TGI [32]: > 100 µM
TGI [33]: 54.6 µM
TGI [34]: > 100 µM
TGI [52]: 8.84 µM
TGI [53]: 12.8 µM
TGI [54]: > 100 µM

[N-]=[NH+]CC(=O)OC(COCc1ccccc1)COCc1ccccc1
TGI [35]: > 100 µM
TGI [2]: > 100 µM
TGI [36]: > 100 µM
TGI [3]: > 100 µM
TGI [55]: > 100000 nM
TGI [4]: 86.6 µM
TGI [5]: > 100 µM
TGI [6]: > 100 µM
TGI [7]: > 100 µM
TGI [8]: > 100 µM
TGI [9]: > 100000 nM
TGI [37]: > 100 µM
TGI [10]: > 100 µM
TGI [56]: > 100000 nM
TGI [11]: > 100 µM
TGI [12]: > 100000 nM
TGI [13]: > 100 µM
TGI [14]: > 100 µM
TGI [15]: 63 µM
TGI [38]: > 100 µM
TGI [16]: > 100 µM
TGI [39]: > 100 µM
TGI [18]: 86.2 µM
TGI [40]: > 100 µM
TGI [19]: > 100 µM
TGI [41]: > 100 µM
TGI [42]: > 100 µM
TGI [20]: > 100 µM
TGI [43]: > 100 µM
TGI [22]: > 100 µM
TGI [57]: > 100000 nM
TGI [47]: > 100 µM
TGI [48]: > 100 µM
TGI [23]: > 100000 nM
TGI [24]: > 100 µM
TGI [25]: > 100 µM
TGI [26]: > 100 µM
TGI [49]: > 100 µM
TGI [27]: > 100 µM
TGI [28]: > 100 µM
TGI [29]: > 100 µM
TGI [51]: > 100 µM
TGI [30]: > 100 µM
TGI [31]: > 100000 nM
TGI [32]: > 100 µM
TGI [33]: > 100 µM
TGI [34]: > 100 µM
TGI [52]: > 100 µM
TGI [53]: > 100 µM
TGI [54]: > 100 µM

CN(C)c1ccc(/C=c2/c3ccccc3n3c2cc(C24CC5CC(CC(C5)C2)C4)[n+]3C)cc1
TGI [1]: 1.09 µM
TGI [2]: 1.49 µM
TGI [3]: 1.44 µM
TGI [55]: 2160 nM
TGI [4]: 1.04 µM
TGI [10]: 1.08 µM
TGI [56]: 1360 nM
TGI [16]: 1.12 µM
TGI [18]: 0.405 µM
TGI [40]: 1.6 µM
TGI [41]: 1.61 µM
TGI [42]: 0.658 µM
TGI [43]: 1.58 µM
TGI [57]: 694 nM
TGI [47]: 1.84 µM
TGI [23]: 320 nM
TGI [26]: 1.65 µM
TGI [51]: 0.666 µM
TGI [30]: 1.23 µM
TGI [31]: 1480 nM
TGI [33]: > 100 µM
TGI [34]: > 100 µM
TGI [52]: 0.731 µM
TGI [54]: > 100 µM
